Source: patent publication US20250073194A1, “RXR AGONISTS IN EYE DISORDERS” (Baylor College of Medicine, priority 2022, published 2025)
Entries after “also recorded” stand apart in the source; their conditions may differ.

Experiments:
γδ T cells [1] = assay: IL-17A/F in supernatants of stimulated cultured γδ T cells (ELISA); type: cell-based, mouse; details: for effect on IL-17A/F cytokine concentration in supernatants: C57BL/6 spleen γδ T cells, anti-CD3/CD28 beads plus recombinant IL-23, 10 and 100 nM (FIG. 12); for suppressive effect on supernatant IL-17 concentration: bead+IL-23 stimulated, 100 nM 9-cis RA, 96 hours
Method: (§1) Pooled γ/δ T17 cells from the spleens of 8-10 week old B6 and Pinkie mice were isolated using the TCR γ/δ T cells Isolation Kit according to the manufacturer's instruction (Miltenyi Biotec, Bergisch Gladbach, Germany). To determine the effect of 9CisRA and monocytes conditional media on IL17 cytokine production, the purified γδ T17 cells were stimulated with anti-CD3/CD28 Dynabeads (Catalog #11452D, Life Technologies AS, Norway) alone or in combination with IL-23 (10 ng/ml, eBioscience), 9-cisRA (100 nM) or monocyte conditioned media for 96 hours for cytokine measurement.
(§2) Mouse IL17 was measured from cell cultured supernatant after 96 hours incubation using a mouse IL-17 DuoSet Enzyme-linked immunosorbent assay (ELISA) (R&D systems, Minneapolis, USA)

monocytes [2] = details: 9-cis RA treated monocytes; cited from earlier work
monocytes [3] = assay: Nanostring myeloid innate immunity array of LPS-stimulated cultured monocytes; type: cell-based, mouse; details: 100 nM 9-cis RA added to culture media
Method: (§3) Monocytes were purified from 3 days cultured mouse bone marrow cells using the monocytes isolation kit, according to the manufacturer's instruction (BM, Miltenyi Biotec, Bergisch Gladbach, Germany). 5×10^5 monocytes plated in a 48 well plate were preincubated with 100 nM 9-cisRA for 1 hour followed by stimulation with 0.5 μg/ml LPS for 4 hours for RNA or overnight for cytokines. The total RNA was extracted using an RNeasy® Plus Mimi Kit (Cat No. 74134, QIAGEN GmbH, Hilden, Germany) according to manufacturer's instruction. The RNA and collected supernatants were stored at −80° C. until further use.
This was performed by the Genomic and RNA Profiling Core at Baylor College of Medicine using the NanoString Technologies nCounter Gene Expression Mouse Myeloid Innate Immunity V2 Panel codeset (NS_MM_Myeloid_V2.0) containing 770 unique pairs of 35-50 bp reporter probes and biotin-labeled capture probes, including internal reference controls (NanoString, Seattle, WA) as previously described. (Alam et al., 2021a). Data was analyzed by ROSALIND® (https://rosalind.bio/), with a HyperScale architecture developed by ROSALIND, Inc. (San Diego, CA).

monocytes [4] = assay: Stimulatory activity of conditioned media from LPS-treated monocytes on IL-17 production by γδ T cells; type: cell-based, mouse; details: LPS-stimulated cultured monocytes treated with 100 nM 9-cisRA
Method: as §3, §1, §2

γδ T cells [5] = details: stimulated with anti-CD28 antibody and cytokine cocktail of IL-23 and IL-1; cited from earlier work

CCCCCCCC/C=C\CCCCCCCC(=O)O [oleic acid]
effect on IL-17A/F cytokine concentration in supernatants (γδ T cells [1]): suppressive effects

C=CCc1ccc(O)c(-c2ccc(O)c(CC=C)c2)c1 [honokiol]
effect on IL-17A/F cytokine concentration in supernatants (γδ T cells [1]): suppressive effects

CN1c2ccc([N+](=O)[O-])cc2N=C(c2ccc(C(=O)O)cc2)c2cc3c(cc21)C(C)(C)CCC3(C)C [HX531]
effect on suppressive activity of the RAR agonist ATRA on IL-17A/F (γδ T cells [1]; C57BL/6 γδ T cells, anti-CD3/CD28 beads plus IL-23 (FIG. 12)): did not have any effect
effect on the suppressive effects of RXRα agonists on IL-17A/F (γδ T cells [1]; C57BL/6 γδ T cells, anti-CD3/CD28 beads plus IL-23, with 9-cisRA, Bexarotene, DHA, oleic acid, honokiol (FIG. 12)): blocked

CC1=C(/C=C/C(C)=C\C=C\C(C)=C\C(=O)O)C(C)(C)CCC1 [9-cis RA, 9-cis retinoic acid]
suppressive effect on supernatant IL-17 concentration (γδ T cells [1]; B6 γδ T cells): 74%
effect on IL-17A/F cytokine concentration in supernatants (γδ T cells [1]): suppressive effects
suppressive effect on supernatant IL-17 concentration (γδ T cells [1]; Pinkie γδ T cells): 46%
suppression of IL-17 production (γδ T cells [1]; cultured γδ T cells stimulated by CD28 beads or beads plus IL-23): > 70%
supernatant IL-17 concentration (γδ T cells [1]; stimulated γδ T cells from both strains (B6 and Pinkie), 100 nM): suppresses; also recorded: significantly reduced
levels of IL-1β and IL-23β in supernatants (monocytes [2]): reduced levels
expression of γδT17 inducing cytokines (Il23a, Il12b, Il1α, Il1β, Tnf-α) (monocytes [3]): suppressed; also recorded: reduced
expression of γδT17 inducing cytokines (Il23a, Il12b, Il1α, Il1β, Tnf-α) (monocytes [3]; listed as 9-cisRA): suppresses
stimulatory activity of monocyte conditioned media on γδ T cell IL-17 production (monocytes [4]): suppresses; also recorded: significantly reduced
stimulatory activity of monocyte conditioned media on γδ T cell IL-17 production (monocytes [4]; listed as 9-cisRA): significantly reduced

CC1=C(/C=C/C(C)=C/C=C/C(C)=C/C(=O)O)C(C)(C)CCC1 [all trans retinoic acid]
effect on IL-17A/F cytokine concentration in supernatants (γδ T cells [1]): suppressive activity

CC/C=C\C/C=C\C/C=C\C/C=C\C/C=C\C/C=C\CCC(=O)O [DHA, omega-3 docosahexaenoic acid]
effect on IL-17A/F cytokine concentration in supernatants (γδ T cells [1]): suppressive effects

C=C(c1ccc(C(=O)O)cc1)c1cc2c(cc1C)C(C)(C)CCC2(C)C [Bexarotene]
effect on IL-17A/F cytokine concentration in supernatants (γδ T cells [1]): suppressive effects

CC1(C)CCC(C)(C)c2cc(NC(=O)c3ccc(C(=O)O)cc3)ccc21 [AM80]
IL-17 production by γδ T cells (γδ T cells [5]): suppress
